Laboratory results: the NIST ThermoML archive (doi:10.1021/je050056e)

Settings: Liquid; for mass density: 101.33 kPa

FC1(F)C(F)(F)C(F)(F)C2(F)C(F)(F)C(F)(F)C(F)(F)C(F)(F)C2(F)C1(F)F (centres undefined) [perfluorodecalin]
Settings | mass density [kg/m3] | vapor or sublimation pressure [kPa]
288.15 K | 1952.8 | –
288.25 K | – | 0.57
293.15 K | 1941.7 | –
293.25 K | – | 0.73
298.15 K | 1930.5 | –
298.21 K | – | 0.91
303.15 K | 1919.2 | –
303.29 K | – | 1.25
308.23 K | – | 1.59
313.15 K | 1896.6 | –
313.22 K | – | 2.05
318.21 K | – | 2.66
323.18 K | – | 3.45
328.17 K | – | 4.41
333.2 K | – | 5.47

FC(F)C(F)(F)C(F)(F)C(F)(F)C(F)(F)C(F)(F)C(F)(F)C(F)(F)F [1H-perfluorooctane]
Settings | mass density [kg/m3] | vapor or sublimation pressure [kPa]
288.15 K | 1773.6 | –
288.35 K | – | 1.18
293.15 K | 1761.8 | –
293.26 K | – | 1.6
298.15 K | 1749.9 | –
298.26 K | – | 2.18
303.15 K | 1737.9 | –
303.19 K | – | 2.84
308.15 K | 1725.8 | 3.72
313.13 K | – | 4.87
313.15 K | 1713.6 | –
318.06 K | – | 6.22
323.01 K | – | 8.07
328 K | – | 10.25
332.89 K | – | 12.83

Fc1c(F)c(F)c(F)c(F)c1F [hexafluorobenzene]
Settings | mass density [kg/m3] | vapor or sublimation pressure [kPa]
288.15 K | 1628.9 | –
288.23 K | – | 6.9
293.15 K | 1617.5 | –
293.51 K | – | 9
297.98 K | – | 11.16
298.15 K | 1606.2 | –
302.96 K | – | 14.2
303.15 K | 1594.8 | –
307.96 K | – | 17.93
308.15 K | 1583.3 | –
312.96 K | – | 22.25
313.15 K | 1571.8 | –
317.96 K | – | 27.56
322.96 K | – | 33.85
327.95 K | – | 41.16
333.01 K | – | 49.95

FC(F)(F)C(F)(F)C(F)(F)C(F)(F)C(F)(F)C(F)(F)C(F)(F)C(F)(F)C(F)(F)F [eicosafluorononane]
Settings | mass density [kg/m3] | vapor or sublimation pressure [kPa]
288.15 K | 1812.2 | –
288.18 K | – | 0.68
293.15 K | 1800.1 | –
293.18 K | – | 0.94
298.11 K | – | 1.29
298.15 K | 1787.9 | –
303.1 K | – | 1.71
303.15 K | 1775.7 | –
308.19 K | – | 2.32
313.15 K | 1750.9 | –
313.17 K | – | 3.06
318.22 K | – | 3.99
323.15 K | – | 5.14
328.15 K | – | 6.59
333.15 K | – | 8.42

FC(F)(F)C(F)(F)C(F)(F)C(F)(F)C(F)(F)C(F)(F)F [perfluorohexane]
Settings | mass density [kg/m3] | vapor or sublimation pressure [kPa]
288.15 K | 1705.6 | –
288.31 K | – | 18.78
293.15 K | 1691 | –
293.22 K | – | 23.58
298.09 K | – | 29.28
298.15 K | 1676.1 | –
302.98 K | – | 36.19
303.15 K | 1661.1 | –
307.97 K | – | 44.38
313.15 K | 1630.2 | –
313.17 K | – | 54.56
318.15 K | – | 65.86
323.13 K | – | 78.91
328.11 K | – | 94.08
333.1 K | – | 111.39

Fc1c(F)c(F)c(C(F)(F)F)c(F)c1F [octafluorotoluene]
Settings | mass density [kg/m3] | vapor or sublimation pressure [kPa]
288.15 K | 1682.8 | –
288.23 K | – | 2.18
293.15 K | 1672.2 | –
293.2 K | – | 2.95
298.15 K | 1661.6 | –
298.28 K | – | 3.87
303.15 K | 1650.9 | –
303.18 K | – | 5.09
308.15 K | 1640.2 | 6.54
313.15 K | 1629.4 | 8.43
318.15 K | – | 10.69
323.15 K | – | 13.38
328.45 K | – | 16.86
333.93 K | – | 21.31

FC(F)(F)C(F)(F)C(F)(F)C(F)(F)C(F)(F)C(F)(F)C(F)(F)C(F)(F)Br [1-bromoperfluorooctane]
Settings | mass density [kg/m3] | vapor or sublimation pressure [kPa]
288.15 K | 1938.6 | –
288.22 K | – | 0.38
293.15 K | 1926.7 | –
293.2 K | – | 0.54
298.08 K | – | 0.69
298.15 K | 1914.8 | –
303.15 K | 1902.8 | –
303.26 K | – | 0.98
308.15 K | 1890.8 | –
308.22 K | – | 1.3
313.15 K | 1878.6 | –
313.18 K | – | 1.67
318.09 K | – | 2.24
322.92 K | – | 2.89
327.88 K | – | 3.69
332.78 K | – | 4.7
